# Where a name gives a salt, the structure may show the parent alone.
# Columns and labels:
# human heart organoids [1] = assay: FlipGFP (active caspase 3) apoptosis reporter fluorescence in heart organoids; settings: 10 μM, 48 hours, Day 28 to Day 30, EMM2/1 organoids
# human heart organoids [2] = assay: Immunofluorescence, confocal microscopy and image analysis; assay type: cell-based
# Procedure: Immunofluorescence. Human heart organoids were transferred from the round bottom ultra-low attachment 96 well plate to 1.5 mL microcentrifuge tubes (Eppendorf) using a cut 200 μL pipette tip (to increase tip bore diameter as to not disturb the organoid). Organoids were fixed in 4% paraformaldehyde (VWR) in PBS for 30 minutes. Following, organoids were washed using PBS-Glycine (1.5 g/L) three times for 5 minutes each. Organoids were then blocked and permeabilized using a solution containing 10% Donkey Normal Serum (Sigma), 0.5% Triton X-100 (Sigma), and 0.5% BSA (Thermo Fisher Scientific) in PBS on a thermal mixer at 300 rpm at 4° C. overnight. Organoids were then washed 3 times using PBS and incubated with primary antibodies (Table 4) within a solution containing 1% Donkey Normal Serum, 0.5% Triton X-100, and 0.5% BSA in PBS (hereafter termed “Antibody Solution”) on a thermal mixer at 300 rpm at 4° C. for 24 hours.
# Following, organoids were washed 3 times for 5 minutes each using PBS. Organoids were then incubated with secondary antibodies (Table 4) in Antibody Solution on a thermal mixer at 300 rpm at 4° C. for 24 hours in the dark. Subsequently, organoids were washed 3 times for 5 minutes each using PBS and mounted on glass microscope slides (Fisher Scientific). 90 μm Polybead Microspheres (Polyscience, Inc.) were placed between the slide and a No. 1.5 coverslip (VWR) to provide support pillars such that the organoids could retain three dimensionality. Organoids were transferred to the glass microscope slides using a cut 200 uL pipette tip and mounted using a clearing solution described previously^153. T-tubule staining was performed using FITC-conjugated Wheat Germ Agglutinin (WGA) lectins (Sigma).
# Confocal Microscopy and Image Analysis. […] Images were analyzed using Fiji. […] Thresholds were generated for the equalized image intensity values.
# (§1) Ondansetron treatment. Ondansetron hydrochloride (Sigma) was prepared at 200 μM in DMSO and was further diluted in DMEM/F12 ((Dulbecco's Modified Eagle Medium/Nutrient Mixture F-12) before being sterile filtered via a 0.22 μm PVDF filter (Sigma). Ondansetron was applied to heart organoids at final concentrations of 1 μM, 10 μM, and 100 μM in EMM2/1 medium, and was applied from Day 9 to Day 20 of culture. Organoids were collected on Day 30 for analysis.
# DEAB and Retinoic Acid treatment. 4-Diethylaminobenzaldehyde (DEAB) (Sigma) was prepared at 1 M in DMSO, diluted further to 10 mM using DMSO, then finally diluted to 1 mM in DMEM/F12. Retinoic Acid (RA) (Sigma) was prepared at 1 M in DMSO, and diluted to 100 μM in DMEM/F12. Diluted solutions of DEAB and RA were sterile filtered via 0.22 μm PVDF filters (Sigma). […] DEAB, RA, and DEAB+RA were applied to heart organoids from Day 20 to Day 30 of culture using the EMM2/1 strategy. Organoids were collected on Day 30 for analysis.
# human heart organoids [3] = assay: Real time RT-PCR gene expression in heart organoids; assay type: cell-based; settings: day 30, EMM2/1 organoids
# Procedure: Real time RT-PCR. Organoids were collected at day 20, 21, 23, 25, and 30 and stored in RNAprotect (Qiagen) at −20° C. RNA was extracted using the Qiagen RNEasy Mini Kit according largely to the manufacturer's instructions. Organoids were lysed using the Bead Mill 4 Homogenizer (Fisher Scientific) at speed 2 for 30 seconds. RNA concentration was measured using a NanoDrop One (Thermo Fisher Scientific). A minimum threshold of […] was required to proceed with reverse transcription. cDNA was generated using the Quantitect Reverse Transcription Kit (Qiagen) and stored at −20° C. Primers for real time qPCR were designed using the Primer Quest tool (Integrated DNA Technologies). SYBR Green (Thermo Fisher Scientific) was used as the DNA intercalating dye and the amplifier for the reaction vessel. Real time qPCR was performed using the QuantStudio 5 Real-Time PCR system (Applied Biosystems) using a total reaction volume of 20 μL. Gene expression levels were normalized to HPRT1 expression in each independent sample. Log base 2 fold change values were obtained using the double delta CT method.
# human heart organoids [4] = assay: Voltage imaging with di-8-ANEPPS; assay type: cell-based; settings: 10 and 100 μM conditions
# Procedure: Voltage imaging. Voltage activity within human heart organoids was assessed using di-8-ANEPPS (Thermo Fisher Scientific). Di-8-ANEPPS was solubilized in DMSO per the manufacturer's instructions. A 15 μM solution of di-8-ANEPPS was prepared in respective medium (Control, MM, EMM1, etc.). Organoids were washed twice using RPMI 1640 basal medium, then di-8-ANEPPS was added at a final concentration of 10 μM and incubated for 30 minutes at 37° C. and 5% CO2. Organoids were then washed twice using their respective medium (Control, MM, EMM1, etc.) and transferred to a chambered coverglass slide (Cellvis) using a cut 200 μL pipette tip. Videos were acquired using a Cellvivo microscope (Olympus) at 100 frames per second over 10 total seconds as an image stack at either 20× magnification (ondansetron) or 100× magnification (maturation electrophysiology). Samples were excited at 465 nm excitation and 630 nm emission was collected. Data was processed using Fiji and Microsoft Excel. Baseline F0 of fluorescence intensity F was calculated using the average of the lowest 50 intensity values in the acquired dataset. Fluorescence change ΔF/F0 was calculated using the same method as with Calcium imaging presented above. APD30 and APD90 were measured from the midpoint of the upstroke until 30% or 90% repolarization, respectively^162.
# as §1
# human heart organoids [5] = assay: Brightfield microscopy of organoid size and beating; assay type: cell-based
# human heart organoids [6] = tested on: human heart organoids
# [7] = 10 μM, Day 20 to Day 30, EMM2/1 organoids
smiles,measurement,setting,value
"COc1cccc2c1C(=O)c1c(O)c3c(c(O)c1C2=O)C[C@@](O)(C(=O)CO)C[C@@H]3O[C@H]1C[C@H](N)[C@H](O)[C@H](C)O1 [doxorubicin, Doxorubicin hydrochloride]","FlipGFP fluorescence (apoptosis), positive control",human heart organoids [1],high levels of fluorescence
"CCN(CC)c1ccc(C=O)cc1 [DEAB, 4-Diethylaminobenzaldehyde]",MYL3+ area relative to Untreated organoids,human heart organoids [2]; [7],0.35 fold
same,NR2F2+ area relative to Untreated organoids,human heart organoids [2]; [7],0.42 fold
"Cc1nccn1CC1CCc2c(c3ccccc3n2C)C1=O (stereo not shown) [ondansetron, Ondansetron hydrochloride]",MYL2 expression relative to Untreated,human heart organoids [3]; 10 μM,0.58 fold
same,MYL2 expression relative to Untreated,human heart organoids [3]; 100 μM,0.40 fold
same,APD30 compared to Untreated,human heart organoids [4],increased
same,APD90 compared to Untreated,human heart organoids [4],increased
same,action potential amplitude compared to Untreated,human heart organoids [4],decreased
same,action potential frequency compared to Untreated,human heart organoids [4],decreased frequencies
same,MYL2+ area relative to Untreated,"human heart organoids [2]; 10 μM, day 9 until day 30, EMM2/1 organoids",0.55 fold
same,MYL2+ area relative to Untreated,"human heart organoids [2]; 100 μM, day 9 until day 30, EMM2/1 organoids",0.18 fold
same,structural organization of organoids compared to Untreated,"human heart organoids [2]; 100 μM, day 30, EMM2/1 organoids",structurally less organized
same,MYL7+ area,"human heart organoids [2]; 1, 10 and 100 μM, day 9 until day 30, EMM2/1 organoids",remained unchanged
same,beating of heart organoids over time,human heart organoids [5]; 100 μM condition,most marked loss in cardiac activity
same,beating of heart organoids over time,"human heart organoids [5]; day 0 to day 30, all concentrations",progressive loss of beating
same,apoptosis (FlipGFP fluorescence),human heart organoids [6],does not contribute to apoptosis
